{"source": "patent US20100184807A1", "about": "“Methods to inhibit tumor cell growth by using proton pump inhibitors” (Bio-Quant, Inc., priority 2008, published 2010)", "system": "GDM-1 (leukemia)", "test": "MTT tumor cell growth assay", "type": "cell-based", "conditions": "GDM-1 (FIG. 3J); 10 μM", "experimental": "In one study, adherent cells were plated approximately 16-24 hours before the day of the experiment in 180 μl growth media. On the day of the experiment, the plated adherent cells were analyzed and counted and suspension cells were plated in 180 μl growth media. 10× lansoprazole compounds and vehicle was prepared. The 10× lansoprazole compounds were prepared by diluting lansoprazole to final concentrations of 100 μM, 30 μM, 10 μM, 3 μM, and 1 μM. A vehicle was prepared by preparing a solution of PBS, equivalent to the volume used for 10 μM lansoprazole wherein the 1× solution constitutes ˜0.06% PBS. 10 μl of the various 10× lansoprazole solutions and the vehicle were added to the cells. The cells were incubated at 37° C., 5% CO2 for 48 hours. The media was then aspirated. The cell suspension was then spun at 1500 RPM for 10 minutes. The media was slowly removed. 200 μl of MTT solution was added to each well with a concentration of 0.863 mg/ml MTT in the growth media. The cells were incubated at 37° C., 5% CO2 for 4 hours and the medium is then aspirated. The plate containing the cell suspension was then spun at 1500 RPM for 10 minutes. The media was slowly removed using a multichannel pipettor. 100 μl of DMSO was then added to each well. The cells were incubated at 37° C., 5% CO2 for 5 minutes and the absorbance was obtained at 560 nm using a Dynex Opsys MR plate reader. The cells used for this procedure were the following cell lines: IGROV1 (ovarian cancer); OVCAR 8 (ovarian cancer); ES-2 (ovarian cancer); CAOV3 (ovarian cancer); OVCAR5 (ovarian cancer); SUDHL4 (lymphoma); RPMI8226 (myeloma); RPMI6666 (Hodgkin's lymphoma); NC37 (lymphoma); GDM-1 (leukemia); MC/CAR (prostate cancer); DU-145 (prostate cancer), J45-01 (leukemia), MOLT3 (leukemia), HUT78, J-gamma-1 (leukemia), MCF7 […], COL0205 (colon cancer), HL60 CLONE 15 (leukemia), T47D (breast cancer), P116 (intestinal cancer), KU812 (leukemia), SW620 (colon cancer), MK92-M1 (lymphoma), MV-4-11 (leukemia), HS578T (breast cancer), HT29 (colon cancer), HCT 116 (colon cancer), CAKI-1 (kidney cancer), A549 (lung cancer), H460 (lung cancer), A3 (colon cancer), MDA-MB231 […], MALME 3M (melanoma), RXF393 (kidney cancer), RS4.11 (leukemia), PC3 (prostate cancer), OVCAR3 (ovarian cancer), MDA-MB435 (melanoma), HUT102 (lymphoma), HL60 (leukemia), CCRF-CEM (leukemia), HUT78 (lymphoma), 786-O (kidney cancer), ACHN (kidney cancer), A498 (kidney cancer), H226 (lung cancer), H522 (lung cancer), HOP92 (lung cancer), SNB 19 (brain cancer), OVCAR4 (ovarian cancer), H9 (lymphoma), UO-31 (kidney cancer), HH (lymphoma), DAUDI (leukemia), LOXIMVI (melanoma), NAMALWA (lymphoma), EKVX (lung cancer), DOHH2 (lymphoma), SNB75 (brain cancer), SKMEL28 (melanoma), SKMEL5 (melanoma), SKMEL2 (melanoma), M14 (melanoma), UACC 257 (melanoma), H332M (lung cancer), KM12 (colon cancer), HCC2998 (colon cancer), G401 (kidney cancer), RS1184 (lymphoma), MC116 (leukemia), MOLT4 (leukemia), JM1 (liver cancer), HOP-62 (lung cancer), HCT-15 (colon cancer), SF-539 (brain cancer), SF295 (brain cancer), ST486 (lymphoma), U251 (brain cancer), and UACC-62 (melanoma).\nExperiments, as described in Example I were conducted with lansoprazole, omeprazole and SCH 28080 at concentrations of 1 μM, 10 μM, and 100 μM. FIGS. 3A-3K show the experimental results when tumor cells from the following cell lines were treated with lansoprazole, omeprazole, and SCH 28080: IGROV1 (FIG. 3A), OVCAR8 (FIG. 3B), ES-2 (FIG. 3C), CAOV3 (FIG. 3D), OVCAR5 (FIG. 3E), SUDHL4 (FIG. 3F), RPMI8226 (FIG. 3G), RPMI6666 (FIG. 3H), NC37 (FIG. 3I), GDM-1 (FIG. 3J), and MC/CAR (FIG. 3K)."}
{"smiles": "Cc1nc2c(OCc3ccccc3)cccn2c1CC#N", "note": "[SCH28080, SCH 28080]", "values": [{"measurement": "reducing tumor cell growth", "value": "effective in reducing tumor cell growth"}]}
